In ChEMBL document CHEMBL4483862, “Open-source discovery of chemical leads for next-generation chemoprotective antimalarials” (2018):

Test system: Plasmodium berghei
Assay: Luciferase/luciferin-expressing antifolate-resistant parasites were used to infect a culture of HepG2 cells that were pre-incubated with compounds. Infected hepatocytes emit light due to the luciferase reaction. Assay results are presented as the percent inhibition of light emission compared to control. […]
Assay type: functional
Conditions: sporozoite; for IC90: read-out: LUCIFERASE INFECTION ASSAY - IC90
[1] = read-out: LUCIFERASE INFECTION ASSAY - IC50

| Structure (SMILES) | IC90 [µM] | IC50 [1] [µM] | other results |
| --- | --- | --- | --- |
| O=C(c1cccs1)c1c(-c2ccccc2)cc2ccccn12 | 3.73 |  | IC50 (HEPG2TOX_HILL_SLOPE 2.42, HEPG2TOX_R_SQUARED 0.887, PBLUC_HILL_SLOPE 12.4, 11.2, PBLUC_R_SQUARED 0.720, 0.734, read-out: LUCIFERASE INFECTION ASSAY - IC50): 3.1 µM |
| CSc1nc2ccccc2c(=O)n1-c1c(C)cccc1C | > 11.1 |  | IC50 (PBLUC_HILL_SLOPE 11.2, PBLUC_R_SQUARED 0.357, read-out: LUCIFERASE INFECTION ASSAY - IC50): 10.5 µM |
| C=CCn1c(C)cc(C(=O)Cn2nnc(-c3ccccc3C)n2)c1C | > 10 |  | IC50 (PBLUC_HILL_SLOPE 0.683, PBLUC_R_SQUARED 0.219, read-out: LUCIFERASE INFECTION ASSAY - IC50): > 10 µM |
| O=C(/C(=N/Nc1ccc(OC(F)(F)F)cc1)C(=O)C(F)(F)F)c1cccs1 | > 8.04 |  | IC50 (PBLUC_HILL_SLOPE 12.2, PBLUC_R_SQUARED 0.21, read-out: LUCIFERASE INFECTION ASSAY - IC50): 7.58 µM |
| CCOc1ccc(-c2nnc(SCC(=O)Nc3ccccc3C(=O)NCc3ccccc3)o2)cc1 | > 10 | 4.44 |  |
| O=c1c(Br)c(Br)cnn1-c1ccccc1 | > 10 |  | IC50 (HEPG2TOX_HILL_SLOPE 14.1, HEPG2TOX_R_SQUARED 0.656, PBLUC_HILL_SLOPE 2.79, PBLUC_R_SQUARED 0.266, read-out: LUCIFERASE INFECTION ASSAY - IC50): 6.1 µM |
| O=C(Nc1nc2ccccc2[nH]1)c1ccc(-c2ccc(F)cc2)s1 | 5.74 |  | IC50 (PBLUC_HILL_SLOPE 3.71, PBLUC_R_SQUARED 0.757, read-out: LUCIFERASE INFECTION ASSAY - IC50): 3.18 µM |
| COc1ccc(C2CC(c3ccccc3)=NN2C(=O)CSc2ncnc3ccccc23)cc1 (configuration not stated) | > 10 | > 10 |  |
| COCCN(CCOC)C(=O)CSc1nnc(/C=C/c2ccccc2)[nH]1 | > 10 | > 10 |  |
| CN(C)c1ccc(NC(=O)CCc2nc(-c3ccc(Cl)cc3)no2)c(C#N)c1Cl | > 7.67 |  | IC50 (HEPG2TOX_HILL_SLOPE 10.4, HEPG2TOX_R_SQUARED 0.728, PBLUC_HILL_SLOPE 0.523, PBLUC_R_SQUARED 0.342, read-out: LUCIFERASE INFECTION ASSAY - IC50): > 7.67 µM |
| C=CCNC(=O)COc1ccc2c(=O)c(-c3ccc(Cl)cc3)c(C)oc2c1 | > 8.6 | > 8.6 |  |
| O=C(Nc1nc(CN2CCCCC2)cs1)c1ccc2[nH]c3c(c2c1)CCCC3 | > 10 | > 10 |  |
| Cc1c(Cl)cccc1-n1c(SCC(=O)N(CCC#N)c2ccccc2)nc2ccccc2c1=O | > 10 |  | IC50 (PBLUC_HILL_SLOPE 15.9, PBLUC_R_SQUARED 0.269, read-out: LUCIFERASE INFECTION ASSAY - IC50): 9.73 µM |
| Cc1ccc(NC(=O)Nc2ccc3nc(-c4ccccc4)nn3c2)cc1 | > 10 | > 10 |  |
| CCn1nc(C)cc1-c1nnc(Cc2ncc([N+](=O)[O-])s2)n1CCCOC | 5.21 |  | IC50 (HEPG2TOX_HILL_SLOPE 9.43, HEPG2TOX_R_SQUARED 0.891, PBLUC_HILL_SLOPE 6.15, PBLUC_R_SQUARED 0.786, read-out: LUCIFERASE INFECTION ASSAY - IC50): 3.65 µM |
| O=c1cc(O)c2c(=O)n3c4c(cccc4c2o1)CCC3 | > 12.3 | > 12.3 |  |
| Fc1ccc(-c2csc3ncnc(Sc4nnc(NC5CC5)s4)c23)cc1 | > 10 | > 10 |  |
| Clc1ccc(-c2cnc3cnc(-c4cccs4)cn23)cc1 | 3.99 |  | IC50 (PBLUC_HILL_SLOPE 17.9, PBLUC_R_SQUARED 0.612, read-out: LUCIFERASE INFECTION ASSAY - IC50): 3.53 µM |
| CNC(=O)c1cccc(-c2ccc3ncc(-c4ccc(NC(C)=O)cc4)n3n2)c1 | 2.63 |  | IC50 (HEPG2TOX_HILL_SLOPE 1.21, HEPG2TOX_R_SQUARED 0.751, PBLUC_HILL_SLOPE 4.52, PBLUC_R_SQUARED 0.725, read-out: LUCIFERASE INFECTION ASSAY - IC50): 1.62 µM |
| COc1cc(OC)c(N2CC(C(=O)NC(C)c3ccc(F)c(F)c3)CC2=O)cc1Cl (configuration not stated) | > 10 | > 10 |  |
| CCN(CC)c1ncnc2c1oc1nc(CC(C)C)c3c(c12)CCC3 | > 9.75 | > 9.75 |  |
| COc1cc2c(cc1OC)CN(CCNc1ncnc3sccc13)CC2 | > 10 |  | IC50 (HEPG2TOX_HILL_SLOPE 2.69, HEPG2TOX_R_SQUARED 0.552, PBLUC_HILL_SLOPE 1.83, PBLUC_R_SQUARED 0.419, read-out: LUCIFERASE INFECTION ASSAY - IC50): 3.93 µM |
| CS(=O)(=O)c1sc(NC(=O)Nc2ccccc2Cl)c2ccccc12 | > 8.66 | > 8.66 |  |

| Structure (SMILES) | IC90 [µM] | IC50 [1] [µM] | other results |
| --- | --- | --- | --- |
| CN(C)c1ccc(-c2cnc3cnc(-c4ccc(CO)cc4)cn23)cc1 | > 9.58 |  | IC50 (HEPG2TOX_HILL_SLOPE 1.55, HEPG2TOX_R_SQUARED 0.978, PBLUC_HILL_SLOPE 1.15, PBLUC_R_SQUARED 0.872, read-out: LUCIFERASE INFECTION ASSAY - IC50): 1.58 µM |
| Cc1cc(C)c(C)c(S(=O)(=O)N2CCN(S(=O)(=O)c3ccc(C(C)C)cc3)CC2)c1C | > 10 |  | IC50 (PBLUC_HILL_SLOPE 10.5, PBLUC_R_SQUARED 0.247, read-out: LUCIFERASE INFECTION ASSAY - IC50): 8.75 µM |
| CCCCCCc1nc(SCC(=O)Nc2cc(C)on2)c2c(=O)n(C)c(=O)n(CCC)c2n1 | > 10 | > 10 |  |
| CCCCNC(=O)C1(C)CCCCN1C(=O)c1ccc2c(c1)C(C)(C)CCC2(C)C (configuration not stated) | > 8 |  | IC50 (PBLUC_HILL_SLOPE 3, PBLUC_R_SQUARED 0.424, read-out: LUCIFERASE INFECTION ASSAY - IC50): 7.41 µM |
| FC(F)(F)c1cc(-n2c(-c3cccnc3Oc3ccccc3)n[nH]c2=S)cc(C(F)(F)F)c1 | 4.66 |  | IC50 (HEPG2TOX_HILL_SLOPE 12.4, HEPG2TOX_R_SQUARED 0.913, PBLUC_HILL_SLOPE 1.97, PBLUC_R_SQUARED 0.614, read-out: LUCIFERASE INFECTION ASSAY - IC50): 1.53 µM |
| CC(OC(=O)c1ccccc1NS(=O)(=O)c1ccc2c(c1)OCCO2)C(=O)Nc1ccc([N+](=O)[O-])cc1C(F)(F)F (configuration not stated) | > 10 | > 10 |  |
| CCc1c(C(=O)Nc2ccn(CCc3ccccn3)n2)cnn1C(C)(C)C | 2.23 |  | IC50 (PBLUC_HILL_SLOPE 0.847, PBLUC_R_SQUARED 0.391, read-out: LUCIFERASE INFECTION ASSAY - IC50): 0.166 µM |
| O=C1c2ccccc2C(=Cc2ccc(C(F)(F)F)cc2)c2ccccc21 | 4.1 | 3.58 |  |
| COc1ccc2cc(C3(C)NC(=O)N(Cc4nc(N)nc(Nc5ccc(F)cc5)n4)C3=O)ccc2c1 (configuration not stated) | > 10 | > 10 |  |
| O=C1NC(=O)/C(=C\c2ccc(Cl)c(Cl)c2)N1 | 5.37 |  | IC50 (HEPG2TOX_HILL_SLOPE 1.44, HEPG2TOX_R_SQUARED 0.948, PBLUC_HILL_SLOPE 2.09, PBLUC_R_SQUARED 0.686, read-out: LUCIFERASE INFECTION ASSAY - IC50): 1.87 µM |
| O=C(CC1CCCC1)N1CCc2nc(NCc3cccc(Oc4ccccc4)c3)ncc2C1 | > 7.46 |  | IC50 (HEPG2TOX_HILL_SLOPE 6.79, HEPG2TOX_R_SQUARED 0.796, PBLUC_HILL_SLOPE 75.4, PBLUC_R_SQUARED 0.123, read-out: LUCIFERASE INFECTION ASSAY - IC50): 7.45 µM |
| Cc1ccc(-n2c(C)nnc2SCCCc2nc(-c3ccccc3)no2)cc1 | > 10 | > 10 |  |
| O=C(Nc1nccs1)c1ccc(N2CCCCCC2)nc1 | > 10 |  | IC50 (PBLUC_HILL_SLOPE 1.4, PBLUC_R_SQUARED 0.612, read-out: LUCIFERASE INFECTION ASSAY - IC50): 2.36 µM |
| COc1cc(NC(=O)N2CCc3nc(Nc4cc(Cl)cc(Cl)c4)ncc3C2)cc(OC)c1OC | > 6.54 |  | IC50 (PBLUC_HILL_SLOPE 1.96, PBLUC_R_SQUARED 0.41, read-out: LUCIFERASE INFECTION ASSAY - IC50): 3.52 µM |
| CC1CN(CC(O)COCc2ccc(Cl)cc2)CCN1CC(O)COCc1ccc(Cl)cc1 (configuration not stated) | > 10 |  | IC50 (HEPG2TOX_HILL_SLOPE 0.385, HEPG2TOX_R_SQUARED 0.947, PBLUC_HILL_SLOPE 12.7, PBLUC_R_SQUARED 0.144, read-out: LUCIFERASE INFECTION ASSAY - IC50): 9.06 µM |
| CN1CCN(c2ccc(-c3cn4c(-c5cccc(O)c5)cnc4cn3)cc2)CC1 | > 8.56 |  | IC50 (HEPG2TOX_HILL_SLOPE 8.09, HEPG2TOX_R_SQUARED 0.0909, PBLUC_HILL_SLOPE 1.65, PBLUC_R_SQUARED 0.318, read-out: LUCIFERASE INFECTION ASSAY - IC50): 7.19 µM |
| COc1ccccc1-c1cc2c(Nc3ccc4c(c3)OCCO4)nccc2n1C | 4.78 | 2.39 |  |
| CN(Cc1cccc(Cl)c1Cl)C(C(=O)Nc1ccc(Cl)c(C(F)(F)F)c1)c1ccccc1 (configuration not stated) | > 10 |  | IC50 (FFLUC_HILL_SLOPE 15.8, FFLUC_R_SQUARED 0.442, HEPG2TOX_HILL_SLOPE 1.06, HEPG2TOX_R_SQUARED 0.598, PBLUC_HILL_SLOPE 0.733, PBLUC_R_SQUARED 0.344, read-out: LUCIFERASE INFECTION ASSAY - IC50): 7.46 µM |
| O=C(Nc1ccc(OC(F)(F)F)cc1)Nc1ccc(Sc2ccc(Cl)cc2)nc1 | > 7.5 |  | IC50 (HEPG2TOX_HILL_SLOPE 6.6, HEPG2TOX_R_SQUARED 0.793, PBLUC_HILL_SLOPE 3.54, PBLUC_R_SQUARED 0.066, read-out: LUCIFERASE INFECTION ASSAY - IC50): 6.05 µM |
| C/C(N)=C(/C#N)C(=O)COC(=O)c1cc(-c2cccc3ccccc23)nc2ccccc12 | > 10 | > 10 |  |
| CSc1sc(-c2ccon2)c(-c2cccs2)c1C#N | > 10.8 | > 10.8 |  |
| COC(=O)c1cnc(Sc2nnc(C(F)(F)F)n2C)c([N+](=O)[O-])c1 | > 9.08 |  | IC50 (HEPG2TOX_HILL_SLOPE 7.14, HEPG2TOX_R_SQUARED 0.788, read-out: LUCIFERASE INFECTION ASSAY - IC50): > 9.08 µM |
| O=C1COc2ccc(-c3csc(Nc4ccccc4C(F)(F)F)n3)cc2N1 | > 10 | 5.54 |  |
